This passage reports IC50 results from US20100311714A1, “1H-IMIDAZO[4,5-c]QUINOLINONE COMPOUNDS” (priority 2009, published 2010).

In assay [1] the target is T1, PI3K alfa (Homo sapiens, UniProt P42336).
T1 construct: His tag (C); made in house; host or cells: baculovirus BV1075; Tn5 (Trichoplusia ni) or TiniPro insect cells
Nature of the assay: PI3K alpha kinase assay (Kinase-Glo luminescence). Type of assay: biochemical. The following applies: read-out: EPK_PI3Kalfa/IC50. An outline of the steps:
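IC50 values come from a four-parameter logistic fit of percent inhibition at eight concentrations, typically 10 to 0.003 μM. Recombinant PI3Kα at 10 nM turned over 1 μM ATP with 10 μg/mL PI for 60 min at room temperature, and residual ATP was measured by Kinase-Glo.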
(In general: In Kinase-Glo more light means more ATP remaining.)

Assay [2] concerns the target T2, PI3K delta (Homo sapiens, UniProt O00329).
T2 construct: for the full-length p110-d subunit are generated and fused by overlapping PCR; His tag (C); made in house; host or cells: baculovirus BV1060; Tn5 (Trichoplusia ni) or TiniPro insect cells
Nature of the assay: PI3K delta kinase assay (Kinase-Glo luminescence). The following applies: read-out: EPK_PI3Kdelta/IC50. Type of assay: biochemical. The method in brief:
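IC50s derive from 8-point inhibition curves fitted to a 4-parameter logistic model. Reaction: 10 nM purified p110δ/p85 iSH2 fusion, 1 μM ATP, 10 μg/mL PI substrate, pH 7.5 Tris buffer with MgCl2, NaCl, CHAPS and DTT, run 60 min at room temperature; remaining ATP read by Kinase-Glo luminescence.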

T2 sequence (O00329 with tags, fused parts or gaps limits assumed): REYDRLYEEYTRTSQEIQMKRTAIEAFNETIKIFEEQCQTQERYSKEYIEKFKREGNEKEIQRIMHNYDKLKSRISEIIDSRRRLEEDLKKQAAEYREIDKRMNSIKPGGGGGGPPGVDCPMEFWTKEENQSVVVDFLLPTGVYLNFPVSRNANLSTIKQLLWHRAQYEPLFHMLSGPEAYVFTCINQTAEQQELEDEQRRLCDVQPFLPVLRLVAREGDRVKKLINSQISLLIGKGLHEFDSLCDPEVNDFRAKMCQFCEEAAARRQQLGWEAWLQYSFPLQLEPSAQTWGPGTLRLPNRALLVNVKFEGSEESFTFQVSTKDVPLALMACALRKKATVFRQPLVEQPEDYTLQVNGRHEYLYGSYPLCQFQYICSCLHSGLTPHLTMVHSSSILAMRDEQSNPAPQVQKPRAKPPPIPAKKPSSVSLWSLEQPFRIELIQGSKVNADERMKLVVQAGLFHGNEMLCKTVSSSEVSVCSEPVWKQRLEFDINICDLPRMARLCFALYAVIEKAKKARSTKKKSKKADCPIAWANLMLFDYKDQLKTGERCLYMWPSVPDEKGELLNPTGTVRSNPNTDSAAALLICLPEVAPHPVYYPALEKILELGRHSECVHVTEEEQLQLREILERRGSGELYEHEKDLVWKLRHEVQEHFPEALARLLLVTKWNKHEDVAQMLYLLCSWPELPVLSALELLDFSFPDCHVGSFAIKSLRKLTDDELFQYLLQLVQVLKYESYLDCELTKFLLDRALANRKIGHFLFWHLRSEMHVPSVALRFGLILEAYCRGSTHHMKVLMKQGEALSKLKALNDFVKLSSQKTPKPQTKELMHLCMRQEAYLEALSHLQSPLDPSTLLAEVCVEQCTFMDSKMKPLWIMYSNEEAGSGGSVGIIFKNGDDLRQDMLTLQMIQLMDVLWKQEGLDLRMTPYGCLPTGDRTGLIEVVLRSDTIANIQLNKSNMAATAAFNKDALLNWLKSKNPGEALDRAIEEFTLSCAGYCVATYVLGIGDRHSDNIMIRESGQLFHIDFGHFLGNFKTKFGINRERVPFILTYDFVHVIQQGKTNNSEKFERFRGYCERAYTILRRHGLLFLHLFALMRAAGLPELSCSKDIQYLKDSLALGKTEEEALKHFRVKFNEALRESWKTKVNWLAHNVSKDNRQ
T1 sequence (P42336 with tags, fused parts or gaps limits assumed): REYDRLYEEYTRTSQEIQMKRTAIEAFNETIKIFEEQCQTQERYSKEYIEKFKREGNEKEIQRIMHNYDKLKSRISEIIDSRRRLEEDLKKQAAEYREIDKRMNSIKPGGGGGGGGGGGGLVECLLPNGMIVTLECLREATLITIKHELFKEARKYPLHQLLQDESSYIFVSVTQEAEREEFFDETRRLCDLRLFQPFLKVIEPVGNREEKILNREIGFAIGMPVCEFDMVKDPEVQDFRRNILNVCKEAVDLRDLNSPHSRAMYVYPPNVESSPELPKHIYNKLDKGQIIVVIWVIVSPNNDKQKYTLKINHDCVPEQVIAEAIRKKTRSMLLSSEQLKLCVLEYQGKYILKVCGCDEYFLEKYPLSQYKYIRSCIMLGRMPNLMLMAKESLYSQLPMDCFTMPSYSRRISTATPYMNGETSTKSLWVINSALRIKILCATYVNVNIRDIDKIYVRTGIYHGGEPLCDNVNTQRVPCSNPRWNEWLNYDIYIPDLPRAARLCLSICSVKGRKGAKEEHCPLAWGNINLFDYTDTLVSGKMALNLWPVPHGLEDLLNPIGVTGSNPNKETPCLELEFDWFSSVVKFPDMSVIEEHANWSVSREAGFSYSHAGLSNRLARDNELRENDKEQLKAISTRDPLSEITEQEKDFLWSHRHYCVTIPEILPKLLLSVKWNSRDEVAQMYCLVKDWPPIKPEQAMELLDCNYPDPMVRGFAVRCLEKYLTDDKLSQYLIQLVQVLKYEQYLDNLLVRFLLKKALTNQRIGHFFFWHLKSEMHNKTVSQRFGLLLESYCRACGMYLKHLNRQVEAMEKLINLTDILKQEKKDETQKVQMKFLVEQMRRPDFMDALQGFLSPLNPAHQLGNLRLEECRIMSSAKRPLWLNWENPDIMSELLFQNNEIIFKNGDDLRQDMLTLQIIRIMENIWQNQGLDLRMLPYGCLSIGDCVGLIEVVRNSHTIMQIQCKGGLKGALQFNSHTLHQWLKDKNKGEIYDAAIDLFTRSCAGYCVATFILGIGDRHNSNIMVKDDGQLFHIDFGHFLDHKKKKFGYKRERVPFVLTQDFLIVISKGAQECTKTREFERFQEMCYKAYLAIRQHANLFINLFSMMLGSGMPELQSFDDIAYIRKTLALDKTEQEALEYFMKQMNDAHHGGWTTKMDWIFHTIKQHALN

As to `CNc1ncc(-c2ccc3ncc4c(c3c2)n(-c2ccc(N3CC[C@@H](O)C3)nc2C)c(=O)n4C)cn1` [Example 34.1, 1-[6-((R)-3-Hydroxy-pyrrolidin-1-yl)-2-methyl-pyridin-3-yl]-3-methyl-8-(2-methylamino-pyrimidin-5-yl)-1,3-dihydro-imidazo[4,5-c]quinolin-2-one], the figures for the IC50 in assay [1] and in assay [2] were 97 nM and 42 nM, respectively.

As for `CCNc1cc(-c2ccc3ncc4c(c3c2)n(-c2ccc(N3CC(F)(F)C(F)(F)C3)nc2C)c(=O)n4C)cnc1CO` [Example 35.2, 8-(5-Ethylamino-6-hydroxymethyl-pyridin-3-yl)-3-methyl-1-[2-methyl-6-(3,3,4,4-tetrafluoro-pyrrolidin-1-yl)-pyridin-3-yl]-1,3-dihydro-imidazo[4,5-c]quinolin-2-one], the figures for the IC50 in assay [1] and in assay [2] were 27 nM and 10 nM, respectively.
